Legend:
PC-3 = experiment: Flow cytometry cell cycle and subG1, PC-3; type: cell-based, human; conditions: PC-3, 24 h
Experimental: (§1) MD-MBA-231, MG-63, PC-3, and WM164 cells were seeded into Petri dishes and then incubated for 24 h with 20-hydroxycholecalciferol in DMEM medium containing 5% FBS. Then cells were fixed, DNA stained and samples read with flow cytometer as described (7). Data was analyzed with Cell Quest (BD Biosciences). Cell cycle phases were assessed in viable cell populations and subG1 contents were calculated within whole cell population.

rat CYP24 = molecular target: T1, rat CYP24 (Rattus norvegicus, UniProt Q09128); experiment: Metabolism by rat CYP24 in phospholipid vesicles
T1 sequence (Q09128 36-514): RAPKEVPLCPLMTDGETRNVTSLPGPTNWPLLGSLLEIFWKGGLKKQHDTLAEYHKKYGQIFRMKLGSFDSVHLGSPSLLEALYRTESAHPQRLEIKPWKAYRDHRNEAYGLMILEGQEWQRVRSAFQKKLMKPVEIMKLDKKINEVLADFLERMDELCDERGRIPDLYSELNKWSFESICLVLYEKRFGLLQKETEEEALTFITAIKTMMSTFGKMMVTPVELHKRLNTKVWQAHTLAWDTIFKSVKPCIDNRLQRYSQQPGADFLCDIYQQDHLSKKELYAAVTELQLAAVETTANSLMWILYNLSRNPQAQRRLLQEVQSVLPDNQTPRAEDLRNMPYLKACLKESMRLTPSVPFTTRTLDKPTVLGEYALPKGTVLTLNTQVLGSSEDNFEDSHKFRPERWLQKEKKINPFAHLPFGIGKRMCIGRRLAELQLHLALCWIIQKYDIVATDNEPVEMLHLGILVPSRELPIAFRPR
Experimental: Samples (typically 0.25-1.0 mL) were incubated at 37° C., with shaking, then reactions terminated by the addition of 2.5 mL ice-cold dichloromethane and vortexing. After phase separation aided by centrifugation, the lower organic phase was retained and the upper aqueous phase was extracted twice more with 2.5 mL aliquots of dichloromethane. The dichloromethane was removed under nitrogen and the residual sample dissolved in solvent for HPLC analysis.
To test enzymatic metabolism of 20S(OH)D3 and 20R(OH)D3, the substrates were incorporated into phospholipid vesicles with the ratio of substrate to phospholipid being 0.025 mol/mol phospholipid. Vesicles were incubated with 2 μM bovine CYP11A1 or 0.06 μM human CYP27B1 for up to 10 min. To test enzymatic metabolism of 20(OH)D3 in CYP24, the substrate was incorporated into phospholipids vesicles with 0.15-0.5 μM CYP24. To test enzymatic metabolism of 20(OH)D3 in CYP27A1, purified CYP27A1 was preincubated with the vesicles for 6 min at 37° C. Adrenodoxin was added last to initiate the reaction. For kinetic experiments, the incubations were typically 0.5 mL and were carried out over the initial linear period of the reaction (10 min for vitamin D3 and cholesterol and 30 min for 20(OH)D3).

[1] = system: bleomycin-induced scleroderma in C57BL/6 mice; experiment: Bleomycin-induced scleroderma in mice; type: in vivo, mouse
Experimental: […] The skin was injected S.C. with 20(OH)D3 or vehicle daily within the same 1.5 cm^2 area. On day 22, all mice were euthanized and skin in the shaved area of the back was treated with a depilatory agent after which a biopsy of 1 cm circumference encompassing the S.C. injection site was taken to a depth to include the full thickness of the dermis. The skin samples from 5 randomly selected mice from each group were weighed and snap frozen in liquid nitrogen. Later, the skin samples were thawed and treated overnight with pepsin (0.1 mg/ml) of 0.5 M acetic acid at 4° C. with constant rocking to remove terminal non-helical telopeptides to release the collagen into solution. Total solubilized collagen was quantitative using a Sircol Collagen Assay kit using type I bovine collagen to obtain a standard curve. The collagen content of the skin samples was expressed as μg of collagen per mg tissue weight. Results for the groups were expressed as mean±SEM and analyzed by one way ANOVA with p values<0.05 considered to be statistically significant.

WM164 = experiment: Flow cytometry cell cycle and subG1, WM164; type: cell-based; conditions: WM164, 24 h
Experimental: as §1

[2] = system: HL-60 human promyelocytic leukemia cells; experiment: Monocytic differentiation (NBT), HL-60; type: cell-based; conditions: HL-60, 0.1 μM
Experimental: HL-60 human promyelocytic and U937 promonocytic leukemia cells were treated with the drugs at 0.1 μM or vehicle (negative control or 12-O-tetradecanoylphorbol-13-acetate (TPA) (positive control). Media were changed every 72 h and test substances added fresh every day. Differentiation toward monocytes-like morphology and NBT-reduction has been assessed after 5 and 7 days. Cells (2×106) were washed with PBS four times and resuspended in 200 μL of NBT solution (4 mg/mL) in water. After the addition of 200 ul of TPA solution (2 ug/ml) in PBS cells were incubated at 37° C. for 60 min in 24-well plates. Cell differentiation was assessed by intracellular blue formazan deposits. The NBT positive and negative cells were scored under light microscopy examination (40×) with a minimum of 200 cells scored.
For spectrophotometric analysis the cells were washed twice with buffer containing cold bovine serum albumin solution (17 mg/mL BSA, 137 mmol/L, NaCl, 5 mmol/L, KCl, 0.8 mmol/L, MgSO4, […], HEPES, pH7.4) to remove unreacted NBT, and the insoluble formazan deposits in the resulting pellet were solubilized in 1 mL of a mixture containing 90% DMSO, 0.1% SDS and 0.01 mmol/L NaOH by vigorous vortexing. The samples were centrifuged 5 min at 1500 g to remove the cellular debris, and then the absorbance of supernatants was measured at 715 nm. Data are expressed as change in A715/106 cells.

kcat (rat CYP24; phospholipid vesicles) [mol/min/mol CYP24] | kcat/Km lower than for 1,25(OH)2D3 (rat CYP24; phospholipid vesicles) [fold] | kcat/Km lower than that for 25(OH)D3 (rat CYP24; phospholipid vesicles) [fold] | SMILES | G0/G1 of viable cells (PC-3) [%] | G2/M of viable cells (PC-3) | S of viable cells (PC-3) [%] | Viable Cells (PC-3) | subG1 (PC-3; whole cell population) | Km (rat CYP24) | kcat/Km (rat CYP24) | bleomycin-induced increase of total skin collagen ([1]; 3 μg/kg daily dose, 21 days) | body weight less than the vehicle control group ([1]; bleomycin + 20(OH)D3, 21 days) [%] | G0/G1 of viable cells (WM164) [%] | G2/M of viable cells (WM164) | S of viable cells (WM164) [%] | Viable Cells (WM164) | subG1 (WM164; whole cell population) | monocytic differentiation (NBT staining) [2]
10.8±0.8 | 24 | 17 | C=C1CC[C@H](O)C/C1=C/C=C1\CCC[C@@]2(C)[C@H]1CC[C@@H]2[C@@](C)(O)CCCC(C)C [20(OH)D3, (5Z,7E)-9,10-secocholesta-5,7,10(19)-triene-3β,20-diol] | 24 | 0 | 76 | 4 | 96 | 0.028±0.007 mol substrate/mol phospholipid | 386 min^−1(mol substrate/mol phospholipid)^−1 | prevented | 13.6 | 70 | 7 | 24 | 87 | 13 | –
– | – | – | C=C1CC[C@H](O)C/C1=C/C=C1\CCC[C@]2(C)[C@@H](C(C)=O)CC[C@@H]12 [pD3, (5Z,7E)-3β-hydroxy-9,10-secopregna-5,7,10(19)-trien-20-one] | – | – | – | – | – | – | – | – | – | – | – | – | – | – | induce monocytic differention

Reference: patent US20120258938A1, “Enzymatic Production or Chemical Synthesis and Uses for 5,7-Dienes and UVB Conversion Products Thereof” (priority 2008, published 2012)
